This passage reports inhibition and IC50 results from ChEMBL document CHEMBL4819056 (Bioorg Med Chem Lett, 2021).

One may read the IC50 as the concentration that inhibits the measured activity by half.

Calls of active or inactive are those of the source. The rule behind the calls is not given here. Bounds are passed on as bounds.

In experiment [1] the target is T1, Aldehyde dehydrogenase 1A1 (Homo sapiens) (UniProt P00352).
T1 sequence (whole entry): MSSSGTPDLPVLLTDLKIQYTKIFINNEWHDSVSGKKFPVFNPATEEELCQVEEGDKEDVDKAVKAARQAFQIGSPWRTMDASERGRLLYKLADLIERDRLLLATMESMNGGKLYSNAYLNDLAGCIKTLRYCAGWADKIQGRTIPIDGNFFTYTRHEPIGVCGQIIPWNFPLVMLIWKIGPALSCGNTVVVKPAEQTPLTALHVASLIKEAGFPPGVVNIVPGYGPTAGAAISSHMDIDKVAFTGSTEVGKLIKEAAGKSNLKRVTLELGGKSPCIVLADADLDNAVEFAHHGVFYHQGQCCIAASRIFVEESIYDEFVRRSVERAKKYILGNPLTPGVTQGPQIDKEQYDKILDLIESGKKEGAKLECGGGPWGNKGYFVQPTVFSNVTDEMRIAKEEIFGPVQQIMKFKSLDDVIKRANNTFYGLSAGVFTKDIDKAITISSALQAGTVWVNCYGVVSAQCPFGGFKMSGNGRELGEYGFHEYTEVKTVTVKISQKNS
In words: Inhibition of ALDH1A1 (unknown origin) in presence of dithiothreitol.

The target in experiment [2] is T2, Aldehyde dehydrogenase, mitochondrial (Homo sapiens, UniProt P05091).
T2 sequence (P05091 whole entry): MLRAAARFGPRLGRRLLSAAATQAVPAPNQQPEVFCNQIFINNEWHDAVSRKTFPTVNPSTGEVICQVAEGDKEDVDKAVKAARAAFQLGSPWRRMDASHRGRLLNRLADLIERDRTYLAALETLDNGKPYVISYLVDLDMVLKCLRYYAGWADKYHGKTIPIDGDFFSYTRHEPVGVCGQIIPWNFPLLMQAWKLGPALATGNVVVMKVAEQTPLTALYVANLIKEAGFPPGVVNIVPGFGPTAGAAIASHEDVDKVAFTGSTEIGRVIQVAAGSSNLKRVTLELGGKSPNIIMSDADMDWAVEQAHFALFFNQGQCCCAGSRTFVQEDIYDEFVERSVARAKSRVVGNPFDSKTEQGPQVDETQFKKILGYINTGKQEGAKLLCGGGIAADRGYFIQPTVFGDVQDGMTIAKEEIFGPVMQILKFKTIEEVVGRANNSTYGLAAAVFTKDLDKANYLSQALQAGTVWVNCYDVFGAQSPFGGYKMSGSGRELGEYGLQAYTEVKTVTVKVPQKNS
In words: Inhibition of ALDH2 (unknown origin). The class given is single protein.

Experiment [3] deals with T3, Aldehyde dehydrogenase 1A1 (Homo sapiens, UniProt P00352).
T3 sequence (P00352 whole entry): T1 sequence (whole entry)
In words: Inhibition of ALDH1A1 (unknown origin). The class given is single protein.

Turning to `CCN(CC)C(=S)SSC(=S)N(CC)CC`, the inhibition result in experiment [1] is “inactive”.

As to `CCN(Cc1ccc(C(=O)O)cc1)C(=S)SSC(=S)N(CC)Cc1ccc(C(=O)O)cc1`, the IC50 in experiment [2] (read-out: IC50) was found to be 99400 nM; in experiment [3] (read-out: IC50), 2950 nM.

Consider `CCCCN(CCCC)C(=S)SSC(=S)N(CCCC)CCCC`, for which the IC50 in experiment [2] (read-out: IC50) worked out at 72600 nM; in experiment [3] (read-out: IC50), 5610 nM.

For the compound `Cl.NCCS` [CYSTEAMINE HYDROCHLORIDE], the 50% inhibitory concentration (IC50) entry in experiment [2] and in experiment [3] was “Not Active” each time.

`S=C(SSC(=S)N1CCOCC1)N1CCOCC1`: the IC50 in experiment [2] (read-out: IC50) worked out at 1430 nM; in experiment [3] (read-out: IC50), 40 nM.

For the compound `S=C(SSC(=S)N1CCCCC1)N1CCCCC1` [BIS(PIPERIDINYLTHIOCARBONYL)DISULFIDE], the figures for the IC50 in experiment [2] (read-out: IC50) and in experiment [3] (read-out: IC50) were 1510 nM and 50 nM, respectively.

With `CCN(Cc1ccc(F)cc1)C(=S)SSC(=S)N(CC)Cc1ccc(F)cc1`, the IC50 entry in experiment [2] is reported as “Not Active”. In addition, the inhibition entry in experiment [1] is “inactive”.

For the compound `CC(C)N(C(=S)SSC(=S)N(C)C)C(C)C`, the concentration for half-maximal inhibition (IC50) is over 100000 nM in experiment [2] (read-out: IC50) and 2850 nM in experiment [3] (read-out: IC50).

Take `CCN(Cc1ccccc1)C(=S)SSC(=S)N(CC)Cc1ccccc1`: the IC50 entry was “Not Active” in experiment [2] and 270 nM in experiment [3] (read-out: IC50). Also, the inhibition result in experiment [1] is “inactive”.

Consider `CCN(Cc1ccc(O)cc1)C(=S)SSC(=S)N(CC)Cc1ccc(O)cc1`, for which the IC50 in experiment [2] (read-out: IC50) was 10900 nM; in experiment [3] (read-out: IC50), 210 nM. Besides, the inhibition entry in experiment [1] is “inactive”.

Turning to `CC(=O)NC(CS)C(=O)O` (single isomer, unassigned), the half-inhibitory concentration (IC50) result in experiment [2] and in experiment [3] was “Not Active” each time.

For the compound `S=C(SSC(=S)N(Cc1ccccc1)Cc1ccccc1)N(Cc1ccccc1)Cc1ccccc1` [BIS(DIBENZYLAMINETHIOCARBONYL)DISULFIDE], the IC50 entry in experiment [2] is “Not Active”; in experiment [3] (read-out: IC50), over 100000 nM.

Consider `CC(C)CN(CC(C)C)C(=S)SSC(=S)N(CC(C)C)CC(C)C`, for which the IC50 entry in experiment [2] is “Not Active”; in experiment [3] (read-out: IC50), over 100000 nM.

Take `Cl.Cl.NCCSSCCN` [CYSTAMINE DIHYDROCHLORIDE]: the results for the IC50 entry in experiment [2] and in experiment [3] (read-out: IC50) were “Not Active” and over 100000 nM, respectively.
